Experimental findings from patent US9346780B2, “Process for producing dihydro-2H-pyran derivatives” (OKINAWA INSTITUTE OF SCIENCE AND TECHNOLOGY SCHOOL …, priority 2012, dated 2016) are described below.

SMILES strings stand for the structures. pIC50: −log10 of the molar value.

The nature of this data set: Cytotoxicity, K562 cell growth inhibition (Cell Counting Kit-8 / WST-8). The class given is cell-based. The settings on record: human; K562 cells; 6-48 hrs incubation; WST-8 absorbance at 450 nm; concentration inhibiting the cell growth by 50%. The protocol:
K562 cells (American Type Culture Collection) were cultured in a culture medium containing 10% (v/v) fetal calf serum (FCS) (manufactures by Sigma) to logarithmic phase. The cells were seeded in 96-well microtiter plate at a density of 5000 cells/well in 100 μL cell culture medium and incubated at 37° C. and 5% CO2 in a humidified incubator overnight. The test compounds of various concentrations were added in a well at 10 fold concentration in 1/10 volume of medium without FCS. After 6-48 hrs incubation at 37° C. in the CO2 incubator, 10 μL solution of the viable cell counting reagent, Cell counting Kit-8 (5 mmol/L WST-8, 0.2 mmol/L 1-Methoxy PMS, 150 mmol/L NaCl) (manufactured by Dojindo) was added to each well, and reacted for 1 to 4 hours in the CO2 incubator. After the incubation, an absorbance of formazan, generated by reduction of WST-8 was determined at 450 nm using a microplate reader.
The assay readout is correlated with the viable cell numbers. Small values correspond to high inhibition and larger values to low inhibition of the cell growth. To determine IC50 values (i.e. the concentration inhibiting the cell growth by 50%) of the compounds of formula II, IV and V, several assays were made with a range of concentrations chosen empirically to give low, high and intermediate inhibition of the growth and determined using the curve fitting software.
IC50 values can be converted logarithmically to pIC50 values (−log IC50), in which higher values indicate exponentially greater potency. The IC50 value is not an absolute value but depends on experimental conditions e.g. concentrations employed.
In general terms: Tetrazolium assays rely on reduction of a dye to a coloured formazan, in cell work by metabolically active cells.
`CCOC(=O)C1=CC(c2ccc([N+](=O)[O-])cc2)CC(F)(C(=O)OCC)O1` (stereo not drawn): the pIC50 is 4.96. The result for `O=C(OCc1ccccc1)C1=CC(c2ccccc2)CC(O)(C(=O)OCc2ccccc2)O1` (stereo not drawn) reads 3.83; that for `CCOC(=O)[C@]1(O)C[C@H](c2ccc(C(F)(F)F)cc2)C[C@](O)(C(=O)OCC)[C@H]1[N+](=O)[O-]`, 3.84; that for `CCOC(=O)C1=CC(c2ccc(Br)cc2)CC(O)(C(=O)OCC)O1` (stereo not drawn), 4.10. The figure for `COC(=O)C1=CC(c2ccc([N+](=O)[O-])cc2)CC(O)(C(=O)OCc2ccccc2)O1` (stereo not drawn) is 4.09.

Consider `O=C(OCc1ccccc1)[C@]1(O)C[C@H](c2ccccc2)C[C@](O)(C(=O)OCc2ccccc2)[C@H]1[N+](=O)[O-]`, for which the pIC50 was 4.27. The result for `CCOC(=O)C1=CC(c2ccc([N+](=O)[O-])cc2)CC(C(=O)OCC)=NN1` (stereo not drawn) reads 3.83. The result for `COC(=O)[C@@]1(O)C[C@@H](c2ccc([N+](=O)[O-])cc2)C[C@@](O)(C(=O)OCc2ccccc2)[C@@H]1[N+](=O)[O-]` reads 4.05. The result for `CCOC(=O)[C@]1(O)C[C@H](c2ccc(Br)cc2)C[C@](O)(C(=O)OCC)[C@H]1[N+](=O)[O-]` reads 3.84; that for `CCOC(=O)C1=CC(c2ccc(Br)cc2)CC(F)(C(=O)OCC)O1` (stereo not drawn), 4.28; that for `CCOC(=O)C1=CC(c2ccc(Cl)cc2)CC(F)(C(=O)OCC)O1` (stereo not drawn), 4.28. `CCOC(=O)C1=CC(C2CCCCC2)CC(O)(C(=O)OCC)O1` (stereo not drawn) had a pIC50 of 4.24. The figure for `CCOC(=O)C1=CC(c2ccc([N+](=O)[O-])cc2)CC(Nc2ccc(OC)cc2)(C(=O)OCC)O1` (stereo not drawn) is 4.92. Molecule `CCOC(=O)[C@]1(O)C[C@H](C2CCCCC2)C[C@](O)(C(=O)OCC)[C@H]1[N+](=O)[O-]` had a pIC50 of 3.98. The result for `CCOC(=O)C1=CC(c2ccco2)CC(F)(C(=O)OCC)O1` (stereo not drawn) reads 3.87.

The term pIC50 denotes the IC50 on a negative log10 scale, so that one unit is a factor of ten. Lower therefore signals a large IC50.
